Test results as given in EPA's ToxValDB 9.5 (doi:10.2903/j.efsa.2008.146r).

Experiments:
Typhlodromus pyri = assay: LR50; higher = less toxic; conditions: acute; duration: 14 days; mortality
Aphidius rhopalosiphi = assay: LR50; higher = less toxic; conditions: acute; duration: 48 hours; mortality
Colinus virginianus = conditions: acute, oral, mortality
Canidae = conditions: oral, Dog Other, clinical signs
Apis mellifera = conditions: acute, mortality
Coturnix japonica = conditions: reproduction developmental
Daphnia magna = conditions: chronic/long-term; duration: 21 days; reproduction
Tagia sp. = conditions: acute; duration: 14 days; mortality

With C[N+]1(C)CCCCC1.[Cl-] [1,1-Dimethylpiperidinium chloride] the LR50 (Typhlodromus pyri) was 1530 g/ha, the LR50 (Aphidius rhopalosiphi) was 1370 g/ha and the LD50 (Colinus virginianus; diet) was > 1330 mg/kg-day. The LD50 (Colinus virginianus) was > 2000 mg/kg-day, the NOAEL (Canidae; chronic, duration: 12 months) was 19.9 mg/kg-day and the NOAEL (Canidae; subchronic, duration: 3 months) was 30.5 mg/kg-day. For the same molecule, the LC50 (Oncorhynchus mykiss; acute, duration: 96 hours, mortality) was > 100 µg/mL, the NOEC (Oncorhynchus mykiss; chronic/long-term, duration: 28 days, growth) was 100 mg/L and the LD50 (Rattus norvegicus; acute, oral, mortality) was 200 mg/kg-day. The NOAEC (Rattus norvegicus; reproduction developmental) was 155 mg/kg-day, the NOAEL (Rattus norvegicus; reproduction developmental, mortality) was 30 mg/kg-day and the LD50 (Apis mellifera; dermal) was > 100 µg/piece. The LD50 (Apis mellifera; oral, unspecified) was > 107 µg/piece, the NOEC (Coturnix japonica) was 933 mg/kg-day and the NOEC (Daphnia magna) was 12.5 mg/L. For the same molecule, the LC50 (Tagia sp.) was 320 mg/kg.
